Assay results from patent publication US11530226B2, “Azepane inhibitors of menin-MLL interaction” (Janssen Pharmaceutica NV, priority 2016, dated 2022).

What was measured:
[1] = target: T1, menin / FITC-MBM1 peptide (Menin/MLL) (Homo sapiens, UniProt O00255); assay: Menin/MLL fluorescence polarization (FP) assay; type: binding; conditions: read-out: (1) Menin FP assay (IC50 (μM))
T1 sequence (O00255 1-610): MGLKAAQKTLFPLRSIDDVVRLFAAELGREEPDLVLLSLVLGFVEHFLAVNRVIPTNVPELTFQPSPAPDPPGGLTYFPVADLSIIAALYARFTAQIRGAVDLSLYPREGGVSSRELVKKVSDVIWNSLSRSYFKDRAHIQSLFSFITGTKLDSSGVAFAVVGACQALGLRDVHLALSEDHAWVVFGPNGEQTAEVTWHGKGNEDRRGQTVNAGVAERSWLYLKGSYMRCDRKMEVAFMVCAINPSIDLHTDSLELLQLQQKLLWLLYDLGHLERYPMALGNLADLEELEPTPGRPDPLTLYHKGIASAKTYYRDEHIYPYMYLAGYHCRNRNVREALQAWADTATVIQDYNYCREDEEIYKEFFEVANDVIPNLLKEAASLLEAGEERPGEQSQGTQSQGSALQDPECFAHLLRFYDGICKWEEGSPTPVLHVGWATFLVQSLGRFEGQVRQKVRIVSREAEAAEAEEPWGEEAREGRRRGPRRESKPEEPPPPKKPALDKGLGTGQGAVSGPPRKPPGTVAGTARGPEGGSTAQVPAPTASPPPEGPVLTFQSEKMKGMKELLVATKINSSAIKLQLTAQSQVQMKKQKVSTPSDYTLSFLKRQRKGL
Description: Pharmacological Part 1) Menin/MLL Fluorescence Polarization Assay
To a non-surface binding, black 384-well microtiter plate was added 50 nL 160× test compound in DMSO and 4 μL 2× menin in assay buffer (40 mM TrisHCl, pH 7.5, 50 mM NaCl, 1 mM DTT and 0.001% Tween 20). After incubation of test compound and menin for 10 min at ambient temperature, 4 μL 2×FITC-MBM1 peptide (FITC-β-alanine-SARWRPPARPGT-NH2) in assay buffer was added, the microtiter plate centrifuged at 1000 rpm for 1 min and the assay mixtures incubated for 15 min at ambient temperature. The relative amount of menin -FITC-MBM1 complex present in an assay mixture is determined by measuring the fluorescence polarization (FP) of the FITC label with a BMG Pherastar plate reader (ex. 485 nm/em. 520 nm) at ambient temperature. The final concentrations of reagents in the binding assay are 100 nM menin, 5 nM FITC-MBM1 peptide and 0.625%>DMSO in assay buffer. Dose-response titrations of test compounds are conducted using an 11 point, three-fold serial dilution scheme, starting at 31 μM.
Compound potencies were determined by first calculating % inhibition at each compound concentration according to equation 1: % inhibition=((HC−LC)−(FPcompound−LC))/(HC−LC))*100 (Eqn 1)
Where LC and HC are the FP values of the assay in the presence or absence of a saturating concentration of a compound that competes with FITC-MBM1 for binding to menin, and FP^compound is the measured FP value in the presence of the test compound. HC and LC FP values represent an average of at least 16 replicates per plate.
Where Bottom and Top are the lower and upper asymptotes of the dose-response curve, respectively, IC50 is the concentration of compound that yields 50% inhibition of signal and h is the Hill coefficient.

[2] = tested on: K562 cells (two MLL wildtype alleles); assay: Proliferation assay (spheroid-like growth, 8 d, live-cell imaging), K562 control cell line; type: cell-based; conditions: Homo sapiens, 192 h, absolute IC50 from AUC of confluence, read-out: (3) Spheroid assay K562
Description: The anti-proliferative effect of menin/MLL protein/protein interaction inhibitor test compounds was assessed in human leukemia cell lines. The cell lines MV-4-1 1 and MOLM14 harbor MEL translocations and express the MEL fusion proteins MLL-AF4 and MLL-AF9, respectively, as well as the wildtype protein from the second allele. […] K562 was used as a control cell line containing two MLL wildtype alleles in order to exclude compounds that display general cytotoxic effects.
MV-4-1 1 and MOLM14 were cultured in RPMI-1640 (Sigma Aldrich) supplemented with 10% fetal bovine serum (HyClone), 2 mM L-glutamine (Sigma Aldrich) and 50 μg/ml gentamycin (Gibco). […]
In order to assess the anti-proliferative effects, 1,500 MV-4-1 1, 300 MOLM14 or 750 K562 cells were seeded in 200 μl media per well in 96-well round bottom, ultra-low attachment plates (Costar, catalogue number 7007). […] Spheroid like growth was monitored in real-time by live-cell imaging (IncuCyteZOOM, Essenbio, 4× objective) acquiring one image every four hours for 8d. Confluence (%) as a measure of spheroid size was determined using an integrated analysis tool.
In order to determine the cumulative effect of the test compounds over time, the area under the curve (AUC) in a plot of confluence against time was calculated. […]

SMILES | IC50 [1] [µM] | IC50 [2] [nM]
FC(F)(F)Cc1cc2c(N3CCC[C@@H](NCc4ccccc4)CC3)ncnc2s1 [Compound 3, (R)N-benzyl-1-(6-(2,2,2-trifluoroethyl)thieno[2,3-d]pyrimidin-4-yl)azepan-4-amine] | 0.038 | 9700
CC(C)CNC1CCCN(c2ncnc3sc(CC(F)(F)F)cc23)CC1 (single isomer, unassigned) [Compound B1B, N-isobutyl-1-(6-(2,2,2-trifluoroethyl)thieno[2,3-d]pyrimidin-4-yl)azepan-4-amine] | 0.44 | 
FC(F)(F)Cc1cc2c(N3CCC[C@H](NCc4ccccc4)CC3)ncnc2s1 [Compound 4, (S)-N-benzyl-1-(6-(2,2,2-trifluoroethyl)thieno[2,3-d]pyrimidin-4-yl)azepan-4-amine] | 0.23 | 8800
CC(C)CNC1CCCN(c2ncnc3sc(CC(F)(F)F)cc23)CC1 (single isomer, unassigned) [Compound B1A, N-isobutyl-1-(6-(2,2,2-trifluoroethyl)thieno[2,3-d]pyrimidin-4-yl)azepan-4-amine] | 0.054 | 
